Source: ChEMBL document CHEMBL5649169 (ChemMedChem, 2018)

Experiments:
[1] = target: EKC/KEOPS complex subunit LAGE3 (Homo sapiens) (UniProt Q14657)
[2] = target: Large subunit GTPase 1 homolog (Homo sapiens) (UniProt Q9H089)
[3] = target: Macrophage migration inhibitory factor (Homo sapiens) (UniProt P14174)
[4] = target: Protein prenyltransferase alpha subunit repeat-containing protein 1 (Homo sapiens) (UniProt Q7Z6K3)
[5] = target: RNA-binding protein 14 (Homo sapiens) (UniProt Q96PK6)
[6] = target: Rapamycin-insensitive companion of mTOR (Homo sapiens) (UniProt Q6R327)
[7] = target: Secretory carrier-associated membrane protein 2 (Homo sapiens) (UniProt O15127)
[8] = target: Antigen peptide transporter 1 (Homo sapiens) (UniProt Q03518)
[9] = target: Ubiquitin-protein ligase E3A (Homo sapiens) (UniProt Q05086)
Ubiquitin-protein ligase E3A (Homo sapiens), sequence (Q05086 whole entry): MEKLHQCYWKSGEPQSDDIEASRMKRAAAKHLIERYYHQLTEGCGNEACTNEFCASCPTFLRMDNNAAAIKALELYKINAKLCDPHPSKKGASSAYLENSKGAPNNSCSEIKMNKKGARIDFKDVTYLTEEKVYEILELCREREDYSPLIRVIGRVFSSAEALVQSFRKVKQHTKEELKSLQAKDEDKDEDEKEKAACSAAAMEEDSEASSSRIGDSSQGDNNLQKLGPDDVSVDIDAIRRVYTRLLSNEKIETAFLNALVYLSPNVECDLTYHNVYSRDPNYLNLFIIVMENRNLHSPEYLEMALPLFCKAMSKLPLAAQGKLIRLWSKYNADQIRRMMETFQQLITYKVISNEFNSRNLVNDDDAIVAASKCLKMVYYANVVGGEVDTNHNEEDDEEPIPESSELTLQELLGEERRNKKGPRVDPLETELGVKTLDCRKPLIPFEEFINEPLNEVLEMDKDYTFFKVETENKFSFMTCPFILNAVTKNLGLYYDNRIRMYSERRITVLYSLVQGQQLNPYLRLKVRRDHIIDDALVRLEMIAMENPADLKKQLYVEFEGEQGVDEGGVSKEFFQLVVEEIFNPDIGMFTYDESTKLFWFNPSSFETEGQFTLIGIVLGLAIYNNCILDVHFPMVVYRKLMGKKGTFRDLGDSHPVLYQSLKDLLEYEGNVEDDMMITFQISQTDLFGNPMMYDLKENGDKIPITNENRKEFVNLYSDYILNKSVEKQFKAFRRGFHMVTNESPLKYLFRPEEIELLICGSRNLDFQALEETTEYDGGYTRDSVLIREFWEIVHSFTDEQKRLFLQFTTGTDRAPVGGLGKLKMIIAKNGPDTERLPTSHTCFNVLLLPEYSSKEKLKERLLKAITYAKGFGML

[10] = target: Acetyl-CoA carboxylase 2 (Homo sapiens) (UniProt O00763)
[11] = target: V-type proton ATPase 16 kDa proteolipid subunit c (Homo sapiens) (UniProt P27449)
[12] = target: Conserved oligomeric Golgi complex subunit 2 (Homo sapiens) (UniProt Q14746)
[13] = target: N(G),N(G)-dimethylarginine dimethylaminohydrolase 1 (Homo sapiens) (UniProt O94760)
[14] = target: Elongation factor G, mitochondrial (Homo sapiens) (UniProt Q96RP9)
Elongation factor G, mitochondrial (Homo sapiens), sequence (Q96RP9 whole entry): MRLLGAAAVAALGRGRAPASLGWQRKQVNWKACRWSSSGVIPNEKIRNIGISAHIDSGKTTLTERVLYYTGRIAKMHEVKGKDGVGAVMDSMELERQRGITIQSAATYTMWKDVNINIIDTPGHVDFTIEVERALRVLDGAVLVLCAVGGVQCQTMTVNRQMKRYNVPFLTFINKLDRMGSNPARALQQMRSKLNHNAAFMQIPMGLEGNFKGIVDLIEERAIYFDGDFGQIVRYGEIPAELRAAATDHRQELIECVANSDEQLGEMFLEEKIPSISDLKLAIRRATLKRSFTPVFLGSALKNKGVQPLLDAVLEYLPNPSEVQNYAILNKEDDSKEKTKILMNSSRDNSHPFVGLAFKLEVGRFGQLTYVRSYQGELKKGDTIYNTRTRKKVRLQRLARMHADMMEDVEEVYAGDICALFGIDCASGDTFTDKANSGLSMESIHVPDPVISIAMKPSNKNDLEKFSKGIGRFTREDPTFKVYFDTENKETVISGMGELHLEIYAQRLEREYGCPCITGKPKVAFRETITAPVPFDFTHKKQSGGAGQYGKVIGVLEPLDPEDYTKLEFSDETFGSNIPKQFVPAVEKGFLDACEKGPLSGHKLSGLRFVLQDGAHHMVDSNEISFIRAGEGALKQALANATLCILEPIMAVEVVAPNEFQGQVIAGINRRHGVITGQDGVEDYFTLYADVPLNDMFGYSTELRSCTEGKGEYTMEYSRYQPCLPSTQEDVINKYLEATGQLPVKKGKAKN

[15] = target: General transcription factor IIF subunit 2 (Homo sapiens) (UniProt P13984)
[16] = target: Inositol 1,4,5-trisphosphate-gated calcium channel ITPR1 (Homo sapiens) (UniProt Q14643)
[17] = target: Lysine-specific histone demethylase 1A (Homo sapiens) (UniProt O60341)
[18] = target: Kelch-like protein 6 (Homo sapiens) (UniProt Q8WZ60)
[19] = target: Small ribosomal subunit protein mS40 (Homo sapiens) (UniProt Q9Y676)
[20] = target: Small ribosomal subunit protein uS2m (Homo sapiens) (UniProt Q9Y399)
[21] = target: Unconventional myosin-Ig (Homo sapiens) (UniProt B0I1T2)
[22] = target: Programmed cell death protein 2-like (Homo sapiens) (UniProt Q9BRP1)
Programmed cell death protein 2-like (Homo sapiens), sequence (Q9BRP1 whole entry, canonical isoform): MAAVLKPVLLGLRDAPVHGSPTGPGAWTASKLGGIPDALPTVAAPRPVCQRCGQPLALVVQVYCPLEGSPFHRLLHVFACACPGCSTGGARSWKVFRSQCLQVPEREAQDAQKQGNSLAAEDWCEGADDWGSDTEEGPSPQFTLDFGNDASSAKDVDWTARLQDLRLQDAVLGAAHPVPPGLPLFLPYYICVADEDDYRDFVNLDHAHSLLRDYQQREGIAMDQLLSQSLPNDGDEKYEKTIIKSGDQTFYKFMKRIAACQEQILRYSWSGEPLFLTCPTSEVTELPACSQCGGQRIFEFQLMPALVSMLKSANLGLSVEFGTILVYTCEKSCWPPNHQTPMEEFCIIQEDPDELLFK

[23] = target: Phosphatidylinositol 4,5-bisphosphate 3-kinase catalytic subunit beta isoform (Homo sapiens) (UniProt P42338)
Phosphatidylinositol 4,5-bisphosphate 3-kinase catalytic subunit beta isoform (Homo sapiens), sequence (P42338 whole entry, looked up, canonical isoform): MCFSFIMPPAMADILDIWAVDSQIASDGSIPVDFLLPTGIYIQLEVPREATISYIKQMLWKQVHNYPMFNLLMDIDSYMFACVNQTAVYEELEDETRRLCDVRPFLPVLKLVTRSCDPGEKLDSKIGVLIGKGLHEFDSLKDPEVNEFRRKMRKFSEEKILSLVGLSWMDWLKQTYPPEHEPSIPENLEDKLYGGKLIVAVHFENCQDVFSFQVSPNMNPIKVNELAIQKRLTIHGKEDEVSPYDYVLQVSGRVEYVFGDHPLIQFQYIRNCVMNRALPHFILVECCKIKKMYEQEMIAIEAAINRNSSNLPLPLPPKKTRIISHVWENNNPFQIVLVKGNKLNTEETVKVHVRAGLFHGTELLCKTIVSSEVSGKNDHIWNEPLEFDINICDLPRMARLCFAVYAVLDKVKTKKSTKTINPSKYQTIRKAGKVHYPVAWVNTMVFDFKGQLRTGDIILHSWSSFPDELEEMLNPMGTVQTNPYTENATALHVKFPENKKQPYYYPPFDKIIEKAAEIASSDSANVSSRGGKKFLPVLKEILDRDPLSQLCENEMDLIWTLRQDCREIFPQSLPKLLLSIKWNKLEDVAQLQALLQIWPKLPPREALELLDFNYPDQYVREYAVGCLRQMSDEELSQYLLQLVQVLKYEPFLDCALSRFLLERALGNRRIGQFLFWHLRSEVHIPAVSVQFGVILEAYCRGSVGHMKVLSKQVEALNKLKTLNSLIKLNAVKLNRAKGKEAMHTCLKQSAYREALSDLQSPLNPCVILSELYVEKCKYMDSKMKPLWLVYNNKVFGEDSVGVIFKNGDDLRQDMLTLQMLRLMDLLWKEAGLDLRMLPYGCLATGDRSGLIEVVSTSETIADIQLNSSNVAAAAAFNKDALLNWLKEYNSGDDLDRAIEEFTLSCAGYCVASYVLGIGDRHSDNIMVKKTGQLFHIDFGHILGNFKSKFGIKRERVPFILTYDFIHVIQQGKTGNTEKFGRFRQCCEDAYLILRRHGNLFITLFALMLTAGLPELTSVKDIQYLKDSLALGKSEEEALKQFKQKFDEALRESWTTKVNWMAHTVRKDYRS

[24] = target: Serine/threonine-protein kinase pim-2 (Homo sapiens) (UniProt Q9P1W9)
[25] = target: Pleckstrin homology domain-containing family G member 3 (Homo sapiens) (UniProt A1L390)
[26] = target: DNA polymerase delta subunit 3 (Homo sapiens) (UniProt Q15054)
DNA polymerase delta subunit 3 (Homo sapiens), sequence (Q15054 whole entry): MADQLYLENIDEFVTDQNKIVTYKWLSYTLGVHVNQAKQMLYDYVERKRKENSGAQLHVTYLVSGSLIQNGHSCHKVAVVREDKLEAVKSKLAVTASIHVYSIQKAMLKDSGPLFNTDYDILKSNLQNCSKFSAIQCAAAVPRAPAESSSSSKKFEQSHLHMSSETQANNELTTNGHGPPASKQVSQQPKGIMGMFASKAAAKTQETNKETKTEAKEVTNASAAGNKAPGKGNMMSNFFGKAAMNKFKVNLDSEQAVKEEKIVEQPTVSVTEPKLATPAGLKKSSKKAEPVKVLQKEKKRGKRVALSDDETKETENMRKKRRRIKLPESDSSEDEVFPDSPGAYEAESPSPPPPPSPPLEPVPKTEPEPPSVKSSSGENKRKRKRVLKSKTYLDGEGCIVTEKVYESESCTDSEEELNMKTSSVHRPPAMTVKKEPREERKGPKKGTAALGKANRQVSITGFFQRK

[27] = target: Prospero homeobox protein 1 (Homo sapiens) (UniProt Q92786)
[28] = target: E3 ubiquitin-protein ligase RBX1 (Homo sapiens) (UniProt P62877)
[29] = target: Replication factor C subunit 1 (Homo sapiens) (UniProt P35251)
[30] = target: Ribosomal protein S6 kinase beta-1 (Homo sapiens) (UniProt P23443)
Ribosomal protein S6 kinase beta-1 (Homo sapiens), sequence (P23443 whole entry, looked up): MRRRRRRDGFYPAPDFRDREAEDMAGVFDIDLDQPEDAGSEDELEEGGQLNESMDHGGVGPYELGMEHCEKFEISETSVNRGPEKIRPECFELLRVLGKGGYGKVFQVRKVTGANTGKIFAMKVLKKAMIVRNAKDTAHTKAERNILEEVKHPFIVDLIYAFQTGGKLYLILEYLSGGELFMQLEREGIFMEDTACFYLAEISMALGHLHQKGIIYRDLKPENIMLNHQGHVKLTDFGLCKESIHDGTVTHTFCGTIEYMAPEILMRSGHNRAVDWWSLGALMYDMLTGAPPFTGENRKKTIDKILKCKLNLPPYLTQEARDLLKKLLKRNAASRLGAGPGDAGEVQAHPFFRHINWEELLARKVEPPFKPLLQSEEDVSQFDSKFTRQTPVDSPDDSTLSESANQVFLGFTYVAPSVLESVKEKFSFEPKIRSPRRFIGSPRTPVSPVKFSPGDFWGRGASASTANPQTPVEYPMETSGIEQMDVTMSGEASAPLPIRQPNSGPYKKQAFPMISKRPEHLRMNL

[31] = target: Syndecan-2 (Homo sapiens) (UniProt P34741)
[32] = target: Mitochondrial 2-oxodicarboxylate carrier (Homo sapiens) (UniProt Q9BQT8)
Homo sapiens [33] = species: Homo sapiens
[34] = target: Testis-expressed protein 10 (Homo sapiens) (UniProt Q9NXF1)
Homo sapiens [35] = species: Homo sapiens; remark: listed apart in the source
[36] = target: Ubiquitin-conjugating enzyme E2 G2 (Homo sapiens) (UniProt P60604)
[37] = target: Zinc finger CCHC domain-containing protein 8 (Homo sapiens) (UniProt Q6NZY4)
[38] = target: Bone marrow stromal antigen 2 (Homo sapiens) (UniProt Q10589)
[39] = target: Chloride intracellular channel protein 4 (Homo sapiens) (UniProt Q9Y696)
[40] = target: Citrate synthase, mitochondrial (Homo sapiens) (UniProt O75390)
[41] = target: Dolichol-phosphate mannosyltransferase subunit 1 (Homo sapiens) (UniProt O60762)
[42] = target: E3 ubiquitin-protein ligase listerin (Homo sapiens) (UniProt O94822)
[43] = target: NAD(P) transhydrogenase, mitochondrial (Homo sapiens) (UniProt Q13423)
[44] = target: Protein-L-isoaspartate(D-aspartate) O-methyltransferase (Homo sapiens) (UniProt P22061)
[45] = target: Reticulon-3 (Homo sapiens) (UniProt O95197)
Reticulon-3 (Homo sapiens), sequence (O95197 whole entry): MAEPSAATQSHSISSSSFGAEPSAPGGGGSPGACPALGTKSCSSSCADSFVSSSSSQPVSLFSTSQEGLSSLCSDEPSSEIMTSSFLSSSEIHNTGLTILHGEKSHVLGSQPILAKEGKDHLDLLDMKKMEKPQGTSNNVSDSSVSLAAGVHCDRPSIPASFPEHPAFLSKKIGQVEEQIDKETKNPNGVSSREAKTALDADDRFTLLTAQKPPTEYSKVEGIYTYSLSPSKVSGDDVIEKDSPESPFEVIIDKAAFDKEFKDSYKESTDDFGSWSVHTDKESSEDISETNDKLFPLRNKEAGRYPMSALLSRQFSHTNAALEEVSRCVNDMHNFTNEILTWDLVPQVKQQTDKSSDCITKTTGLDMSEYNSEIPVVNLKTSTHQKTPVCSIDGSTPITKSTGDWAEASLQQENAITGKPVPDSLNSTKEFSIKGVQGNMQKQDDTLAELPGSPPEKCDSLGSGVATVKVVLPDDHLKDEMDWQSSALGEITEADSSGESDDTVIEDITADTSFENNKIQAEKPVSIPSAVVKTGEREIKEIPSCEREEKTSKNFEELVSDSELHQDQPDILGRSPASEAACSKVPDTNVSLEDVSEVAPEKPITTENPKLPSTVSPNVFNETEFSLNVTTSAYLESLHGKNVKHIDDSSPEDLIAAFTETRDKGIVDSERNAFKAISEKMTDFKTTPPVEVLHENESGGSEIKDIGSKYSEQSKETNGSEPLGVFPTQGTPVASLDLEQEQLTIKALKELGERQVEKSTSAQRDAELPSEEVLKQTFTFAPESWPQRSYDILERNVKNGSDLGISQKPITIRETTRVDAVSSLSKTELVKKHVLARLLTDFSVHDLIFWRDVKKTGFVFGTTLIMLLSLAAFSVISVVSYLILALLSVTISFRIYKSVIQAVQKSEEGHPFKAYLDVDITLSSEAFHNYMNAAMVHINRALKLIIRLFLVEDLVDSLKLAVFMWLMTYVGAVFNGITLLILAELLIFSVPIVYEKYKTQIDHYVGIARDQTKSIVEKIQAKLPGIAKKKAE

[46] = target: Exportin-1 (Homo sapiens) (UniProt O14980)
Further: assay method not described here.

## Cc1ccc(C(=O)Nc2cccc(C(F)(F)F)c2)cc1Nc1nc(-c2cccnc2)nc2c1cnn2C
[1]
  ED50: 131 µM
[2]
  ED50: 0.000521 µM
[3]
  ED50: 0.00224 µM
[4]
  ED50: 0.0155 µM
[5]
  ED50: 12.4 µM
[6]
  ED50: 10.1 µM
[7]
  ED50: 6.77 µM
[8]
  ED50: 0.0639 µM
[9]
  ED50: 6.96 µM
[10]
  ED50: 0.175 µM
[11]
  ED50: 2.7 µM
[12]
  ED50: 3.45 µM
[13]
  ED50: 61.8 µM
[14]
  ED50: 0.136 µM
[15]
  ED50: 7.69 µM
[16]
  ED50: 3.43 µM
[17]
  ED50: 0.000417 µM
[18]
  ED50: 0.0567 µM
[19]
  ED50: 15.6 µM
[20]
  ED50: 4.88 µM
[21]
  ED50: 0.00217 µM
[22]
  ED50: 4.49 µM
[23]
  ED50: 0.00163 µM
[24]
  ED50: 12.2 µM
[25]
  ED50: 0.00553 µM
[26]
  ED50: 0.00157 µM
[27]
  ED50: 6.66 µM
[28]
  ED50: 2.98 µM
[29]
  ED50: 0.132 µM
[30]
  ED50: 17.6 µM
[31]
  ED50: 13.6 µM
[32]
  ED50: 120 µM
Homo sapiens [33]
  ED50: 0.192 µM
[34]
  ED50: 18 µM
Homo sapiens [35]
  ED50: 0.00171 µM
[36]
  ED50: 0.00416 µM
[37]
  ED50: 16.9 µM

## Cc1ccc(C(=O)Nc2cccc(C(F)(F)F)c2)cc1Nc1nc(-c2cccnc2)nc2nn(C)cc12
[38]
  ED50: 1250 µM
[39]
  ED50: 0.0534 µM
[40]
  ED50: 62.4 µM
[41]
  ED50: 2.9 µM
[42]
  ED50: 0.753 µM
[43]
  ED50: 0.00568 µM
[44]
  ED50: 0.393 µM
[45]
  ED50: 0.0206 µM
[46]
  ED50: 4.43 µM
